In US20020142327A1, “Expression analysis of smarc nucleic acids and polypeptides useful in the diagnosis and treatment of prostate cancer” (priority 2000, published 2002):

Experiments:
Type in all cases: cell-based, Human
LNCaP cells = test: Cell growth assay (MTT) of LNCaP cells treated with DHT
Procedure: (§1) Human prostatic cancer cell lines LNCaP, DU-145, PC-3, and Tsu-prl were obtained from ATCC. LNCaP cancer cells were maintained in humidified atmosphere of 5% CO2 in air in RPMI 1640 medium supplemented with 10% fetal calf serum (Life Technologies, Inc, Rockville, Md.), 3 mM L-glutamine, 100 μg/ml streptomycin and 100 units/ml penicillin. Other lines were maintained in DMEM containing 3 mM L-glutamine, 100 μg/ml streptomycin, 100 units/ml penicillin, and 10% FCS in humidified atmosphere of 5% CO2. To examine the effects of steroids, cells were cultured in RPMI 1640 medium containing 5% FCS treated with dextran coated charcoal (Hyclone, Logan, Utah) for 24 hs before treatment. Cells were grown in the absence or presence of 10 nM DHT for 0, 2, 4, 6, 12, 24, 48, and 72 hs. They were collected and frozen at each time point. Two hundred μl of medium were collected from each flask for PSA assay.
To verify the effect of DHT on the growth of LNCaP cells, cells at 3,000 cells/well were plated in 96-well plates for 24 hs before treatment with DHT. After 72 hs, MTT was added to each well and incubated at 37° C. for four hs. At the end of incubation, the supernatant was removed and 100 μl DMSO was added to each well to dissolve […]. Plates were subsequently read in a plate reader at […].

PSA production = test: PSA ELISA on medium of LNCaP cells treated with DHT
Procedure: as §1
Quantification of PSA was performed using an ELISA. Briefly, a 96-well Nunc plate was coated with 100 μl of goat anti-PSA (1 μg/ml, Scripps laboratory, San Diego, Calif.) overnight at 4° C. The plate was washed with water three times and incubated with 100 μl of blocking buffer (PBS, 0.05% Tween 20, 1 μM EDTA, 0.25% BSA, and 0.05% NaN3) for 1 h at room temperature. The plate was washed three times with water and incubated with 1:1 mixture of mouse anti-human PSA and Eu-labeled anti-mouse IgG (10 ng/antibody each/well for 1½ hs at RT). The plate was then washed four times with water. 100 μl of Delfia Enhancement Solution (PerkinElmer Wallac Inc (Norton, Ohio) was added to the plate was read using a Victor reader according to the manufacturer's instruction.

[1] = test system: prostate specific antigen (PSA) expression; test: Affymetrix GeneChip expression analysis of LNCaP cells, PSA; conditions: 10 nM DHT
Procedure: as §1
Total RNA was isolated from LNCaP cells using the Qiagen Rneasy Midi Kit following the manufacturer's recommendations. For polyA (+) selection, the Promega PolyATract kit was used according to manufacturer's procedures. […] The cRNA was purified by SPRI using paramagnetic beads (Bangs Laboratories), and total molar concentration was determined from the absorbance at 260. […]

SMARCD3 expression = test: Affymetrix GeneChip expression analysis of LNCaP cells, SMARCD3
Procedure: as §1
Total RNA was isolated from LNCaP cells using the Qiagen Rneasy Midi Kit following the manufacturer's recommendations. For polyA (+) selection, the Promega PolyATract kit was used according to manufacturer's procedures. Briefly, LNCaP cells were collected by centrifugation and the RNA isolated using the buffers and recommended procedures from the Qiagen kit. Following RNA extraction, all samples were frozen at −80° C. One microgram of poly A(+) RNA was used as template for synthesis of double-stranded cDNA using the GibcoBRL cDNA synthesis kit, with an oligo dT primer incorporating a T7 RNA polymerase promoter (10 minutes at 70° C. for priming, 65 minutes at 37° C. for first strand synthesis with Superscript II RT, followed by 150 min at 15.8° C. for second strand synthesis with E. coli ligase, E. coli polymerase, and RNAse H). […] The cRNA was purified by SPRI using paramagnetic beads (Bangs Laboratories), and total molar concentration was determined from the absorbance at 260. […]

## C[C@]12CCC(=O)C[C@@H]1CC[C@@H]1[C@@H]2CC[C@]2(C)[C@@H](O)CC[C@@H]12 [DHT]
LNCaP cells; 10 nM DHT
  growth effect at the chosen concentration: robust growth-stimulatory effect
LNCaP cells; dose response, 72 hs, MTT
  growth of LNCaP cells: stimulated
PSA production; DHT treatment
  time at which PSA signal was first detected: 12 h
  time of maximal PSA level: about 48 hs
PSA production; dose response, ELISA
  PSA production: increased in a dose-dependent manner
[1]; 12 hours
  PSA expression increase relative to control: 3 fold
[1]; 72 hours
  PSA expression induction relative to control: approximately 4 fold
SMARCD3 expression; 24 hours post-androgen treatment
  decrease in SMARCD3 expression levels: 2 fold
SMARCD3 expression; 48 hours post-treatment
  decrease in SMARCD3 expression levels: 4 fold
SMARCD3 expression; 72 hours post-treatment
  decrease in SMARCD3 expression levels: 6 fold
